Consider 18 compounds from ChEMBL document CHEMBL3596150, “Acylated glucosylflavones as α-glucosidase inhibitors from Tinospora crispa leaf” (Bioorg Med Chem, 2015).

Data set [1] can be described thus: Inhibition of Bacillus stearothermophilus alpha-glucosidase. Set-up: species or system Geobacillus stearothermophilus.
Data set [2] is described as follows: Retention time of the compound by HPLC-SPE-NMR analysis. The format is physicochemical.
Data set [3] in a line: Cytotoxicity against human WS1 cells. In kind it is cell-based.
For data set [4], the system named is Geobacillus stearothermophilus. The experiment in a line: Inhibition of Bacillus stearothermophilus alpha-glucosidase at 10 ug/ml.

Active and inactive are the calls of the source. No cut-off for these calls is given here.

For `O=c1cc(-c2ccc(O)cc2)oc2cc(O)c([C@@H]3O[C@H](CO)[C@@H](O)[C@H](O)[C@H]3O)c(O)c12` [ISOVITEXIN], inhibition in data set [1] was half-maximal at 61.2 µM (IC50). Also, in data set [2], the Retention_time is listed as 19.5 min.
Compound `O=C(/C=C/c1ccccc1)OC[C@H]1O[C@@H](Oc2cc(O)c3c(=O)cc(-c4ccc(O)c(O)c4)oc3c2)[C@H](O)[C@@H](O)[C@@H]1O` gave a Retention_time in data set [2] of 51.4 min.
For `C[C@H]1O[C@H](O[C@H]2[C@H](O)[C@@H](O)[C@@H](O[C@H]3[C@H](O)[C@@H](O)C(O)O[C@@H]3CO)O[C@@H]2CO)[C@H](O)[C@@H](O)[C@@H]1N[C@H]1C=C(CO)[C@@H](O)[C@H](O)[C@H]1O` (stereo not given in full) [ACARBOSE], in data set [1], the half-inhibitory concentration (IC50) (commonly the concentration that gives 50% inhibition) was determined as 0.033 µM.
The compound `O=C(/C=C/c1ccc(O)cc1)O[C@@H]1[C@@H](O)[C@H](O)[C@@H](CO)O[C@H]1c1c(O)cc2oc(-c3ccc(O)c(O)c3)cc(=O)c2c1O` yielded a concentration for half-maximal inhibition (IC50) in data set [1] of 35.7 µM. Moreover, the Retention_time in data set [2] came out at 29.9 min.
The like results for `O=C(/C=C\c1ccccc1)OC[C@H]1O[C@@H](Oc2cc(O)c3c(=O)cc(-c4ccc(O)cc4)oc3c2)[C@H](O)[C@@H](O)[C@@H]1O` were, in that order, 11.3 µM and 57.4 min.
Take `COc1cc(-c2cc(=O)c3c(O)cc(O)cc3o2)ccc1O` [CHRYSOERIOL]: the Retention_time in data set [2] came out at 51.4 min.
Turning to `O=C(/C=C/c1ccc(O)cc1)OC[C@H]1O[C@@H](Oc2cc(O)c3c(=O)cc(-c4ccc(O)cc4)oc3c2)[C@H](O)[C@@H](O)[C@@H]1O`, the IC50 stood at 14.6 µM in data set [1] and 42 µM in data set [3]. In data set [2], this compound yielded a Retention_time of 43.4 min.
In the case of `O=c1cc(-c2ccc(O)cc2)oc2cc(O)cc(O)c12` [APIGENIN], in data set [1], inhibition was half-maximal at 34.6 µM (IC50). This compound gave a Retention_time in data set [2] of 50.2 min.
In the case of `COc1cc(/C=C/C(=O)OC[C@H]2O[C@@H](Oc3cc(O)c4c(=O)cc(-c5ccc(O)cc5)oc4c3)[C@H](O)[C@@H](O)[C@@H]2O)ccc1O`, the concentration for half-maximal inhibition (IC50) in data set [1] turned out to be 8.8 µM. The compound also yielded a Retention_time in data set [2] of 41.8 min.
For the compound `O=c1cc(-c2ccc(O)cc2)oc2cc(O[C@@H]3O[C@H](CO)[C@@H](O)[C@H](O)[C@H]3O)cc(O)c12` [APIGETRIN], the inhibition entry in data set [4] was “inactive”. Further, the Retention_time in data set [2] was 25.7 min.
Turning to `O=c1cc(-c2ccc(O[C@@H]3O[C@H](CO)[C@@H](O)[C@H](O)[C@H]3O)c(O)c2)oc2cc(O)cc(O)c12`, in data set [4], the inhibition entry is “inactive”.
As to `O=C(/C=C/c1ccc(O)cc1)O[C@@H]1[C@@H](O)[C@H](O)[C@@H](CO)O[C@H]1c1c(O)cc2oc(-c3ccc(O)cc3)cc(=O)c2c1O`, the half-inhibitory concentration (IC50) in data set [1] was 4.3 µM. Further, the Retention_time in data set [2] is 36.5 min.
On the same counts, the results for `O=c1cc(-c2ccc(O)c(O)c2)oc2cc(O)c([C@@H]3O[C@H](CO)[C@@H](O)[C@H](O)[C@H]3O)c(O)c12` [ISOORIENTIN] are 1530 µM and 14.9 min.
In data set [1], `O=C(/C=C\c1ccc(O)cc1)OC[C@H]1O[C@@H](Oc2cc(O)c3c(=O)cc(-c4ccc(O)cc4)oc3c2)[C@H](O)[C@@H](O)[C@@H]1O` came in with an IC50 of 10.1 µM. The same compound showed a Retention_time in data set [2] of 44.9 min.
In turn, `COc1cc(/C=C/C(=O)O[C@@H]2[C@@H](O)[C@H](O)[C@@H](CO)O[C@H]2c2c(O)cc3oc(-c4ccc(O)c(O)c4)cc(=O)c3c2O)cc(OC)c1O` registered a Retention_time in data set [2] of 29.1 min.
In the case of `O=c1cc(-c2ccc(O)c(O)c2)oc2cc(O[C@@H]3O[C@H](CO)[C@@H](O)[C@H](O)[C@H]3O)cc(O)c12` [GALUTEOLIN], in data set [4], the inhibition entry is “inactive”. In data set [2], the Retention_time is reported as 20.7 min.
Compound `O=c1cc(-c2ccc(O)c(O)c2)oc2cc(O)cc(O)c12` [LUTEOLIN] came in with a half-maximal inhibitory concentration (IC50) in data set [1] of 86.1 µM.
In turn, `O=c1cc(-c2ccc(O)c(O)c2)oc2c([C@@H]3O[C@H](CO)[C@@H](O)[C@H](O)[C@H]3O)c(O)cc(O)c12` [ORIENTIN] showed a Retention_time in data set [2] of 16.6 min.
